The text below walks through data of patent US7138411B2, “Substituted benzopyran derivatives for the treatment of inflammation” (G.D. Searle & Co., priority 1997, dated 2006).

Structures can show the parent of a compound that is named as a salt.

Usually melting point stands for the temperature of the solid-liquid transition. As for `O=C(O)C1=Cc2cc(Cl)c(Oc3ccc(C(=O)O)cc3)cc2OC1C(F)(F)F` (stereo not drawn) (as salt: potassium) [Example 206, 7-(4-Carboxyphenoxy)-6-chloro-2-(trifluoromethyl)-2H-1-benzopyran-3-carboxylic acid], the melting point is over 300 °C.

`O=C(O)C1=Cc2cc(Cl)c(Oc3ccc(C(=O)O)cc3Cl)cc2OC1C(F)(F)F` (stereo not drawn) (as salt: potassium) [Example 207, 7-(4-Carboxy-2-chloro-phenoxy)-6-chloro-2-(trifluoromethyl)-2H-1-benzopyran-3-carboxylic acid] had a melting point of over 300 °C.

As to `O=C(O)C1=Cc2cc(Cl)c(Oc3cccc(C(=O)O)c3)cc2OC1C(F)(F)F` (stereo not drawn) (as salt: potassium) [Example 208, 7-(3-Carboxyphenoxy)-6-chloro-2-(trifluoromethyl)-2H-1-benzopyran-3-carboxylic acid], the melting point lay in the range of 288.1 to 289.2 °C. For `Cc1ccc2c(c1)OC(C(F)(F)F)C(C(=O)O)=C2` (stereo not drawn) [Example 3, 7-Methyl-2-trifluoromethyl-2H-1-benzopyran-3-carboxylic acid] the value was 202.1 to 203.1 °C. For `O=C(O)C1=Cc2ccc(C(F)(F)F)cc2OC1C(F)(F)F` (stereo not drawn) [Example 4, 2,7-bis(Trifluoromethyl)-2H-1-benzopyran-3-carboxylic acid] the value was 190.3 to 193.5 °C. For `O=C(O)C1=Cc2ccc(Br)cc2OC1C(F)(F)F` (stereo not drawn) [Example 5, 7-Bromo-2-trifluoromethyl-2H-1-benzopyran-3-carboxylic acid] the value was 198.4 to 199.5 °C; for `O=C(O)C1=Cc2ccccc2OC1C(F)(F)F` (stereo not drawn) [Example 10, 2-Trifluoromethyl-2H-1-benzopyran-3-carboxylic acid], 152.2 to 153.3 °C. `O=C(O)C1=Cc2cccc(F)c2OC1C(F)(F)F` (stereo not drawn) [Example 17, 8-Fluoro-2-trifluoromethyl-2H-1-benzopyran-3-carboxylic acid]: the melting point was 197.7 to 210.1 °C. In the case of `O=C(O)C1=Cc2ccc(Cl)c(Cl)c2OC1C(F)(F)F` (stereo not drawn) [Example 19, 7,8-Dichloro-2-trifluoromethyl-2H-1-benzopyran-3-carboxylic acid] it was 219.5 to 220.9 °C; in that of `CC(C)Oc1ccc2c(c1)OC(C(F)(F)F)C(C(=O)O)=C2` (stereo not drawn) [Example 20, 7-Isopropyloxy-2-trifluoromethyl-2H-1-benzopyran-3-carboxylic acid], 161 to 163 °C.

In the case of `CCc1cccc2c1OC(C(F)(F)F)C(C(=O)O)=C2` (stereo not drawn) [Example 28, 8-Ethyl-2-trifluoromethyl-2H-1-benzopyran-3-carboxylic acid], the melting point is 185.4 to 186.8 °C. For `Nc1ccc2c(c1)C=C(C(=O)O)C(C(F)(F)F)O2` (stereo not drawn) [Example 36, 6-Amino-2-trifluoromethyl-2H-1-benzopyran-3-carboxylic acid] the value was 126 to 133 °C; for `O=C(O)C1=Cc2cc([N+](=O)[O-])ccc2OC1C(F)(F)F` (stereo not drawn) [Example 37, 6-Nitro-2-trifluoromethyl-2H-1-benzopyran-3-carboxylic acid], 187 to 189 °C. `O=C(O)C1=Cc2cc(F)cc(F)c2OC1C(F)(F)F` (stereo not drawn) [Example 41, 6,8-Difluoro-2-trifluoromethyl-2H-1-benzopyran-3-carboxylic acid] displayed a melting point of 207 to 211 °C. For `CCN(CC)c1ccc2c(c1)OC(C(F)(F)F)C(C(=O)O)=C2` (stereo not drawn) [Example 48, 7-(N,N-Diethylamino)-2-trifluoromethyl-2H-1-benzopyran-3-carboxylic acid] the value was 214.4 to 215.4 °C; for `NS(=O)(=O)c1ccc2c(c1)C=C(C(=O)O)C(C(F)(F)F)O2` (stereo not drawn) [Example 51, 6-Aminosulfonyl-2-trifluoromethyl-2H-1-benzopyran-3-carboxylic acid], 187.9 to 189.8 °C. In the case of `CCN(CC)S(=O)(=O)c1ccc2c(c1)C=C(C(=O)O)C(C(F)(F)F)O2` (stereo not drawn) [Example 58, 6-N,N-Diethylaminosulfonyl-2-trifluoromethyl-2H-1-benzopyran-3-carboxylic acid] it was 238 to 240 °C; in that of `CC(C)(C)CC(=O)c1ccc2c(c1)C=C(C(=O)O)C(C(F)(F)F)O2` (stereo not drawn) [Example 60, 6-(2,2-Dimethylpropylcarbonyl)-2-trifluoromethyl-2H-1-benzopyran-3-carboxylic acid], 198 to 200 °C; in that of `COc1c(Cl)cc2c(c1Cl)OC(C(F)(F)F)C(C(=O)O)=C2` (stereo not drawn) [Example 61, 6,8-Dichloro-7-methoxy-2-trifluoromethyl-2H-1-benzopyran-3-carboxylic acid], 195.6 to 199.1 °C. For `O=C(O)C1=Cc2ccc3ccccc3c2OC1C(F)(F)F` (stereo not drawn) [Example 62, 2-Trifluoromethyl-2H-naphtho[1,2-b]pyran-3-carboxylic acid] the value was 245.9 to 248.6 °C; for `O=C(O)C1=Cc2cc(S(=O)(=O)NCc3ccco3)ccc2OC1C(F)(F)F` (stereo not drawn) [Example 69, 6-[[(2-Furanylmethyl)amino]sulfonyl]-2-(trifluoromethyl)-2H-1-benzopyran-3-carboxylic acid], 170 to 173 °C; for `O=C(O)C1=Cc2cc(S(=O)(=O)Cc3ccccc3)ccc2OC1C(F)(F)F` (stereo not drawn) [Example 70, 6-[(Phenylmethyl)sulfonyl]-2-(trifluoromethyl)-2H-1-benzopyran-3-carboxylic acid], 172 to 176 °C.

Take `O=C(O)C1=Cc2cc(S(=O)(=O)NCCc3ccccc3)ccc2OC1C(F)(F)F` (stereo not drawn) [Example 71, 6-[[(Phenylethyl)amino]sulfonyl]-2-(trifluoromethyl)-2H-1-benzopyran-3-carboxylic acid]: the melting point was in the range of 187 to 190 °C. For `O=C(O)C1=Cc2ccc(Cl)cc2OC1C(F)(F)F` (stereo not drawn) [Example 72, 7-Chloro-2-trifluoromethyl-2H-1-benzopyran-3-carboxylic acid] the value was 175.2 to 177.6 °C. For `O=C(O)C1=Cc2cc(Cl)cc(I)c2OC1C(F)(F)F` (stereo not drawn) [Example 73, 6-Chloro-8-iodo-2-(trifluoramethyl)-2H-1-benzopyran-3-carboxylic acid] the value was 220 to 223 °C; for `O=Cc1cc(Cl)cc2c1OC(C(F)(F)F)C(C(=O)O)=C2` (stereo not drawn) [Example 76, 6-Chloro-8-Formyl-2-(trifluoromethyl)-2H-1-benzopyran-3-carboxylic acid], 243.3 to 252.4 °C. In the case of `CC(C)(C)c1cc2c(cc1Br)C=C(C(=O)O)C(C(F)(F)F)O2` (stereo not drawn) [Example 77, 6-Bromo-7-(1,1-dimethylethyl)-2-(trifluoromethyl)-2H-1-benzopyran-3-carboxylic acid] it was 198.6 to 199.9 °C; in that of `O=C(O)C1=Cc2cc(CO)ccc2OC1C(F)(F)F` (stereo not drawn) [Example 80, 6-Hydroxymethyl-2-(trifluoromethyl)-2H-1-benzopyran-3-carboxylic acid], 177.5 to 180.8 °C. `CCc1ccc2c(c1)OC(C(F)(F)F)C(C(=O)O)=C2` (stereo not drawn) [Example 85, 7-Ethyl-2-trifluoromethyl-2H-1-benzopyran-3-carboxylic acid] had a melting point of 167 to 168.6 °C.

For `C[S+]([O-])c1ccc2c(c1)C=C(C(=O)O)C(C(F)(F)F)O2` (stereo not drawn) [Example 86, 6-(Methylsulfinyl)-2-(trifluoromethyl)-2H-1-benzopyran-3-carboxylic acid], the melting point was 148.3 to 151 °C. For `O=C(O)C1=Cc2c(Cl)ccc(Cl)c2OC1C(F)(F)F` (stereo not drawn) [Example 87, 5,8-Dichloro-2-(trifluoromethyl)-2H-1-benzopyran-3-carboxylic acid] the value was 205.7 to 207.1 °C; for `CC(C)(C)c1ccc2c(c1)C=C(C(=O)O)C(C(F)(F)F)O2` (stereo not drawn) [Example 89, 6-(1,1-Dimethylethyl)-2-(trifluoromethyl)-2H-1-benzopyran-3-carboxylic acid], 170.6 to 173.2 °C; for `Cc1ncc(CO)c2c1OC(C(F)(F)F)C(C(=O)O)=C2` (stereo not drawn) [Example 90, 5-(Hydroxymethyl)-8-methyl-2-(trifluoromethyl)-2H-pyrano[2,3-c]pyridine-3-carboxylic acid], 76.1 to 80.1 °C. For `O=C(O)C1=Cc2cc3c(cc2OC1C(F)(F)F)OCO3` (stereo not drawn) [Example 92, 6-(Trifluoromethyl)-6H-1,3-dioxolo[4,5-g][1]benzopyran-7-carboxylic acid] the value was 245.8 to 247.8 °C; for `CCOc1cccc2c1OC(C(F)(F)F)C(C(=O)O)=C2` (stereo not drawn) [Example 93, 8-Ethoxy-2-trifluoromethyl-2H-1-benzopyran-3-carboxylic acid], 159.4 to 160.9 °C.

For the compound `O=C(O)C1=Cc2cc(Cl)c(C(F)(F)F)cc2OC1C(F)(F)F` (stereo not drawn) [Example 94, 6-Chloro-2,7-bis(trifluoromethyl)-2H-1-benzopyran-3-carboxylic acid], the melting point lay in the range of 180.9 to 182.4 °C. `COc1cccc2c1C=C(C(=O)O)C(C(F)(F)F)O2` (stereo not drawn) [Example 95, 5-Methoxy-2-(trifluoromethyl)-2H-1-benzopyran-3-carboxylic acid] showed a melting point of 204.5 to 206.7 °C. For `O=C(O)C1=Cc2cc(Oc3ccc(Cl)cc3)cc(Cl)c2OC1C(F)(F)F` (stereo not drawn) [Example 100] the value was 227.8 to 228.9 °C; for `CC(C)c1cccc2c1OC(C(F)(F)F)C(C(=O)O)=C2` (stereo not drawn) [Example 102, 8-(1-Methylethyl)-2-trifluoromethyl-2H-1-benzopyran-3-carboxylic acid], 210.5 to 211.5 °C. For `N#Cc1cc(Cl)cc2c1OC(C(F)(F)F)C(C(=O)O)=C2` (stereo not drawn) [Example 107, 6-Chloro-8-cyano-2-(trifluoromethyl)-2H-1-benzopyran-3-carboxylic acid] the value was 238.1 to 239.7 °C; for `O=C(O)C1=Cc2cc(Cl)cc(/C=N/O)c2OC1C(F)(F)F` (stereo not drawn) [Example 108, 6-Chloro-8-[(hydroxyimino)methyl]-2-(trifluoromethyl)-2H-1-benzopyran-3-carboxylic acid], 246.9 to 247.9 °C. For `O=C(O)C1=Cc2cc(Cl)cc(CO)c2OC1C(F)(F)F` (stereo not drawn) [Example 109, 6-Chloro-8-(hydroxymethyl)-2-(trifluoramethyl)-2H-1-benzopyran-3-carboxylic acid] the value was 174.6 to 178.9 °C.
